Assay results reported in patent publication US5565488A, “Oxalylamino-benzofuran- and benzothienyl-derivatives” (Bayer Aktiengesellschaft, priority 1994, dated 1996).

Tests used:
human PMN = experiment: Inhibition of FMLP-stimulated production of superoxide radical anions; assay type: cell-based; details: Neutrophil, human neutrophils; for IC50: 4×10^-8 M FMLP
Protocol: 1. Preparation of human PMN
Blood was taken from healthy subjects by venous puncture and neutrophils were purified by dextran sedimentation and resuspended in the buffered medium.
2. Inhibition of FMLP-stimulated production of superoxide radical anions.
Neutrophils (2.5×10^5 ml^-1) were mixed with cytochrome C (1.2 mg/ml) in the wells of a microtitre plate. Compounds according to the invention were added in dimethyl sulphoxide (DMSO). Compound concentration ranged from 2.5 nM to 10 μM, the DMSO concentration was 0.1% v/v in all wells. After addition of cytochalasin b (5 μg×ml^-1) the plate was incubated for 5 min at 37° C. Neutrophils were then stimulated by addition of 4×10^-8 M FMLP and superoxide generation measured as superoxide dismutase inhibitable reduction of cytochrome C by monitoring the OD550 in a Thermomax microtitre plate spectrophotometer. Initial rates were calculated using a Softmax kinetic calculation programme. Blank wells contained 200 units of superoxide dismutase.
The inhibition of superoxide production was calculated as follows: [formula] Rx=Rate of the well containing the compound according to the invention. Ro=Rate in the control well.
Rb=Rate in the superoxide dismutase containing blank well.

FMLP-induced skin oedema = experiment: Effect of intravenously administered compounds on the FMLP-induced skin oedema guinea pigs; assay type: in vivo; details: i.v., 1 mg/kg, guinea pig
Protocol: 5. Effect of intravenously administered compounds on the FMLP-induced skin oedema guinea pigs
Guinea pigs (600-800 g) were anaesthetized with pentobarbitone sodium (40 mg/kg, i.p.) and injected (i.v.) with a 0.5 ml mixture of pentamine sky blue (5% W/V) and ^125 I-HSA (1 μli/animal). 10 minutes later 3 intradermal injections of FMLP (10 μg/site), 1 injection of histamine (1 μg/site) and 1 injection of vehicle (100 μl of 0.2% DMSO V/V in Hanks Buffered salt solution) were made on the left hand side of the animal (preinjection sites). 5 minutes later the drug (1 ml/kg) or the vehicle (50% PEG 400 V/V in distilled water, […]) was administered (i.v.). 10 minutes later an identical pattern of interadermal injections was made on the opposite flank of the animal (post-injection sites). These responses were allowed-to develop for 15 minutes before the animal was sacrificed and a blood sample taken.
Skin sites and plasma samples were counted for 1 minute on a gamma counter an the degree of oedema calculated as μl plasma/skin site. Statistical analysis was done by a paired t-test on the mean of the 3 preinjection site values of μl plasma obtained for FMLP/animal. The percentage inhibition of drug or vehicle was calculated as follow

IC50 (human PMN)	Structure (SMILES)	inhibition at 10 µM (human PMN)	% inhibition (FMLP-induced skin oedema)
0.17 µM	COC(=O)CCc1c(C(=O)c2ccc(Cl)cc2)oc2cc(NC(=O)C(=O)OC)ccc12 [Example 1, 3-[2-(4-Chlorobenzoyl)-6-(2-methoxy-2-oxo-acetamido)-3-benzofuranyl]propanoic acid, methylester]	62%	–
–	CCOC(=O)C(=O)Nc1ccc2c(CCC(=O)OC)c(C(=O)c3ccc(C)cc3)oc2c1 [Example 2]	–	47%
0.11 µM	CCOC(=O)C(=O)Nc1ccc2c(C)c(C(=O)c3ccc(C)cc3)oc2c1 [Example 6]	67%	–
0.9 µM	CCOC(=O)C(=O)Nc1ccc2c(CCC(=O)OC)c(C(=O)c3ccc(Cl)cc3)oc2c1 [Example 7]	86%	–
0.2 µM	CCOC(=O)C(=O)Nc1ccc2c(CCC(=O)OC)c(C(=O)c3ccncc3)oc2c1 [Example 344]	81%	–
